Experimental data: patent US10875837B2, “Inhibitors of the fibroblast growth factor receptor” (BLUEPRINT MEDICINES CORPORATION, priority 2013, dated 2020)

Assays:
wild type FGFR-4 = target: T1, wild type FGFR-4 (Homo sapiens, UniProt P22455); assay: FGFR-4 wild type assay at Km (Caliper electrophoretic mobility shift); type: biochemical; details: wild type FGFR-4, 400 uM ATP, 25 C, 90 minutes; read-out: INH-FGFR4
T1 construct: purchased Carna Biosciences, Inc
Description: Biochemical Activity Assessment In order to assess the activity of chemical compounds against the relevant kinase of interest, the Caliper LifeSciences electrophoretic mobility shift technology platform is utilized. Fluorescently labeled substrate peptide is incubated in the presence dosed levels of compounds, a set concentration of kinase and of ATP, so that a reflective proportion of the peptide is phosphorylated. At the end of the reaction, the mix of phosphorylated (product) and non-phosphorylated (substrate) peptides are passed through the microfluidic system of the Caliper LabChip® EZ Reader II, under an applied potential difference. The presence of the phosphate group on the product peptide provides a difference in mass and charge between the product peptide and the substrate peptide, resulting in a separation of the substrate and product pools in the sample. As the pools pass the LEDS within the instrument, these pools are detected and resolved as separate peaks. The ratio between these peaks therefore reflects the activity of the chemical matter at that concentration in that well, under those conditions.
FGFR-4 wild type assay at Km: In each well of a 384-well plate, 0.5 ng/ul of wild type FGFR-4 (Carna Biosciences, Inc.) was incubated in a total of 12.5 ul of buffer (100 mM HEPES pH 7.5, 0.015% Brij 35, 10 mM MgCl2, 1 mM DTT) with 1 uM CSKtide (5-FAM-KKKKEEIYFFFG-NH2) and 400 uM ATP at 25 C for 90 minutes in the presence or absence of a dosed concentration series of compound (1% DMSO final concentration). The reaction was stopped by the addition of 70 ul of Stop buffer (100 mM HEPES pH 7.5, 0.015% Brij 35, 35 mM EDTA and 0.2% of Coating Reagent 3 (Caliper Lifesciences)). The plate was then read on a Caliper LabChip® EZ Reader II (protocol settings: −1.9 psi, upstream voltage −700, downstream voltage −3000, post sample sip 35 s).

[1] = tested on: pMAPK (Thr202/Tyr204) in MDA-MB453 or DMS 114 cells; assay: Detection of pMAPK (Thr202/Tyr204) using Alpha ELISA (pERK alphaLISA); type: cell-based; details: 1 hr incubation with compound; cell line not given (MDA-MB453 or DMS 114)
Description: Detection of pMAPK (Thr202/Tyr204) Using Alpha ELISA
MDA-MB453 or DMS 114 cells were plated in 96-well cell culture plates at a density of 1×10^5 cells or 3×10^4 cells, respectively. Cells were allowed to attach, and growth media was replaced with serum free media. Compounds were added at the indicated concentrations. Following 1 hr incubation in the presence of compound, cells were collected. For the DMS 114 cells, 100 ng/mL FGF2 was added for 10 min prior to cell collection. Cell lysates were prepared and processed according to manufacturer instruction (AlphaScreen® SureFire™ Phospho-ERK 1/2 Kit (Perkin Elmer).

T1 sequence (P22455 22-802): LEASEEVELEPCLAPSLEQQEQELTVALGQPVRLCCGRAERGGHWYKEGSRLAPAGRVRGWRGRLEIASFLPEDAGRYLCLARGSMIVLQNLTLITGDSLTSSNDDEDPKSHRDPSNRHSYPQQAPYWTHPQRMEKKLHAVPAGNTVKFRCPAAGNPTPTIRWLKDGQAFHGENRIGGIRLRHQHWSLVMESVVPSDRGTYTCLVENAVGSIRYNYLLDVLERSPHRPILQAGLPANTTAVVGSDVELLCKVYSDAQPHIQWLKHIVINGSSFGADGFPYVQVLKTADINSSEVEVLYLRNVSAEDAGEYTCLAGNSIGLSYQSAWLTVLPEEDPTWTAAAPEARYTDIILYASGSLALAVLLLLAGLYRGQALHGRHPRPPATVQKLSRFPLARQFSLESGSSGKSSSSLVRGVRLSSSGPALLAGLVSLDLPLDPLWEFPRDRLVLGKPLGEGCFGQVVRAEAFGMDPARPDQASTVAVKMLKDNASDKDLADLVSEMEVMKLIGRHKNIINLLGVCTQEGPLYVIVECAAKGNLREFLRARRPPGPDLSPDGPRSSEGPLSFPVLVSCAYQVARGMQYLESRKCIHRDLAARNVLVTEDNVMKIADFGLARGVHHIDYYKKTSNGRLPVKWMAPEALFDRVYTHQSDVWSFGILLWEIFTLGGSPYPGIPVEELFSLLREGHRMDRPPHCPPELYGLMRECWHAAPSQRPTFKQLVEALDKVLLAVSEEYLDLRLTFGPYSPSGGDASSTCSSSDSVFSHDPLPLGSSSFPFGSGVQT

Structure (SMILES) | IC50 (wild type FGFR-4) | IC50 [1]
C=CC(=O)N[C@H]1CN(C(=O)CN)C[C@H]1Nc1ncc2cc(-c3c(Cl)c(OC)cc(OC)c3Cl)ccc2n1 (racemic) [Compound 74] | 0.01 to 0.1 µM | 0.1 to 1 µM
C=CC(=O)N[C@H]1CN(C(=O)OC(C)(C)C)C[C@H]1Nc1ncc2cc(-c3c(Cl)c(OC)cc(OC)c3Cl)ccc2n1 (racemic) [Compound 90] | 0.01 to 0.1 µM | 0.1 to 1 µM
C=CC(=O)N[C@H]1CCC[C@H]1Nc1ncc2cc(-c3c(Cl)c(OC)cc(OC)c3Cl)ccc2n1 [Compound 24] | 0.01 to 0.1 µM | 0.01 to 0.1 µM
C=CC(=O)N[C@@H]1COC[C@@H]1Nc1ncc2cc(-c3c(Cl)c(OC)cc(OC)c3Cl)ccc2n1 [Compound 26] | 0.01 to 0.1 µM | 0.1 to 1 µM
C=CC(=O)NC1COCC1Nc1ncc2cc(-c3c(Cl)c(OC)cc(OC)c3Cl)ccc2n1 (stereo not drawn) [Compound 28] | < 0.01 µM | 0.01 to 0.1 µM
C=CC(=O)N[C@H]1COC[C@H]1Nc1ncc2cc(-c3c(Cl)c(OC)cc(OC)c3Cl)cnc2n1 [Compound 29] | 0.01 to 0.1 µM | < 0.01 µM
C=CC(=O)N[C@H]1C[C@@H]2C[C@@H]2[C@H]1Nc1ncc2cc(-c3c(Cl)c(OC)cc(OC)c3Cl)ccc2n1 [Compound 32, N-((1S,2R,3S,5S)-2-((6-(2,6-dichloro-3,5-dimethoxyphenyl)quinazolin-2-yl)amino)bicyclo[3.1.0]hexan-3-yl)acrylamide] | < 0.01 µM | < 0.01 µM
C=CC(=O)N[C@H]1CCCC[C@H]1Nc1ncc2cc(-c3c(Cl)c(OC)cc(OC)c3Cl)ccc2n1 [Compound 34, N-((1S,2R)-2-((6-(2,6-dichloro-3,5-dimethoxyphenyl)quinazolin-2-yl)amino)cyclohexyl)acrylamide] | 0.01 to 0.1 µM | 0.01 to 0.1 µM
C=CC(=O)N[C@H]1CCOC[C@H]1Nc1ncc2cc(-c3c(Cl)c(OC)cc(OC)c3Cl)ccc2n1 [Compound 40, N-((3S,4S)-3-((6-(2,6-dichloro-3,5-dimethoxyphenyl)quinazolin-2-yl)amino)tetrahydro-2H-pyran-4-yl)acrylamide] | < 0.01 µM | < 0.01 µM
C=CC(=O)N[C@H]1COCC[C@H]1Nc1ncc2cc(-c3c(Cl)c(OC)cc(OC)c3Cl)ccc2n1 [Compound 41] | 0.01 to 0.1 µM | 0.1 to 1 µM
C=CC(=O)N[C@H]1CCOC[C@H]1Nc1ncc2cc(-c3c(Cl)c(OC)cc(OC)c3Cl)cnc2n1 [Compound 44] | 0.01 to 0.1 µM | 0.01 to 0.1 µM
C=CC(=O)N[C@H]1CCC[C@H]1Nc1ncc2cc(-c3c(Cl)c(OC)cc(OC)c3Cl)cc(F)c2n1 [Compound 45] | 0.01 to 0.1 µM | 0.01 to 0.1 µM
C=CC(=O)N[C@H]1COC[C@H]1Nc1ncc2cc(-c3c(Cl)c(OC)cc(OC)c3Cl)cc(F)c2n1 [Compound 46] | < 0.01 µM | < 0.01 µM
C=CC(=O)N[C@H]1CCOC[C@H]1Nc1ncc2cc(-c3c(Cl)c(OC)cc(OC)c3Cl)c(F)cc2n1 [Compound 51] | < 0.01 µM | < 0.01 µM
C=CC(=O)N[C@H]1CCOC[C@H]1Nc1ncc2cc(-c3c(Cl)c(OC)cc(OC)c3Cl)cc(F)c2n1 [Compound 52] | < 0.01 µM | < 0.01 µM
C=CC(=O)N[C@H]1COC[C@H]1Nc1ncc2cc(-c3c(Cl)c(OC)cc(OC)c3Cl)cc(Cl)c2n1 [Compound 54] | < 0.01 µM | < 0.01 µM
C=CC(=O)N[C@H]1COC[C@H]1Nc1ncc2cc(-c3c(Cl)c(OC)cc(OC)c3Cl)c(Cl)cc2n1 [Compound 55] | < 0.01 µM | < 0.01 µM
C=CC(=O)N[C@H]1CN(C(C)=O)C[C@H]1Nc1ncc2cc(-c3c(Cl)c(OC)cc(OC)c3Cl)ccc2n1 [Compound 56, N-((3S,4R)-1-acetyl-4-((6-(2,6-dichloro-3,5-dimethoxyphenyl)quinazolin-2-yl)amino)pyrrolidin-3-yl)acrylamide] | < 0.01 µM | < 0.01 µM
C=CC(=O)NC1CN(C(C)=O)CC1Nc1ncc2cc(-c3c(Cl)c(OC)cc(OC)c3Cl)ccc2n1 (stereo not drawn) [Compound 58] | < 0.01 µM | 0.01 to 0.1 µM
C=CC(=O)N[C@H]1CCC[C@H]1Nc1ncc2cc(-c3c(Cl)c(OC)cc(OC)c3Cl)c(=O)n(CC)c2n1 [Compound 62, N-((1S,2R)-2-((6-(2,6-dichloro-3,5-dimethoxyphenyl)-8-ethyl-7-oxo-7,8-dihydropyrido[2,3-d]pyrimidin-2-yl)amino)cyclopentyl)acrylamide] | < 0.01 µM | 0.01 to 0.1 µM

Structure (SMILES) | IC50 (wild type FGFR-4) | IC50 [1]
C=CC(=O)N[C@H]1CCC[C@H]1Nc1ncc2nc(-c3c(Cl)c(OC)cc(OC)c3Cl)c(=O)n(CC)c2n1 [Compound 63] | 0.01 to 0.1 µM | 0.1 to 1 µM
C=CC(=O)N[C@H]1CCOC[C@H]1Nc1cc2c(cn1)cc(-c1c(Cl)c(OC)cc(OC)c1Cl)c(=O)n2C [Compound 64] | < 0.01 µM | < 0.01 µM
C=CC(=O)N[C@H]1CCN(C(C)=O)C[C@H]1Nc1ncc2cc(-c3c(Cl)c(OC)cc(OC)c3Cl)ccc2n1 [Compound 70] | 0.1 to 1 µM | –
C=CC(=O)NC1CN(C(C)=O)CCC1Nc1ncc2cc(-c3c(Cl)c(OC)cc(OC)c3Cl)ccc2n1 (stereo not drawn) [Compound 71] | 0.01 to 0.1 µM | –
C=CC(=O)N[C@H]1C[C@@H](C(=O)OC)C[C@H]1Nc1ncc2cc(-c3c(Cl)c(OC)cc(OC)c3Cl)ccc2n1 [Compound 73] | 0.01 to 0.1 µM | –
C=CC(=O)NC1CN(C(=O)CO)CC1Nc1ncc2cc(-c3c(Cl)c(OC)cc(OC)c3Cl)ccc2n1 (stereo not drawn) [Compound 75] | < 0.01 µM | 0.01 to 0.1 µM
C=CC(=O)N[C@H]1CN(C(=O)CO)C[C@H]1Nc1ncc2cc(-c3c(Cl)c(OC)cc(OC)c3Cl)ccc2n1 [Compound 76] | < 0.01 µM | 0.01 to 0.1 µM
C=CC(=O)N[C@H]1CCCC[C@H]1Nc1ncc2cc(-c3c(Cl)c(OC)cc(OC)c3Cl)c(=O)n(CC)c2n1 [Compound 77] | 0.01 to 0.1 µM | 0.01 to 0.1 µM
C=CC(=O)N[C@H]1CCCC[C@H]1Nc1ncc2nc(-c3c(Cl)c(OC)cc(OC)c3Cl)c(=O)n(CC)c2n1 [Compound 78] | 0.1 to 1 µM | –
C=CC(=O)NC1CCS(=O)(=O)CC1Nc1ncc2cc(-c3c(Cl)c(OC)cc(OC)c3Cl)ccc2n1 (stereo not drawn) [Compound 79] | 0.01 to 0.1 µM | –
C=CC(=O)N[C@H]1CN(C(=O)C2CC2)C[C@H]1Nc1ncc2cc(-c3c(Cl)c(OC)cc(OC)c3Cl)ccc2n1 [Compound 80] | < 0.01 µM | < 0.01 µM
C=CC(=O)N[C@H]1C[C@@H](C(=O)N(C)C)C[C@H]1Nc1ncc2cc(-c3c(Cl)c(OC)cc(OC)c3Cl)ccc2n1 [Compound 81, (1 S,3S,4R)-3-acrylamido-4-((6-(2,6-dichloro-3,5-dimethoxyphenyl)quinazolin-2-yl)amino)-N,N-dimethylcyclopentanecarboxamide] | 0.01 to 0.1 µM | –
C=CC(=O)N[C@H]1C[C@H](C(=O)N(C)C)C[C@H]1Nc1ncc2cc(-c3c(Cl)c(OC)cc(OC)c3Cl)ccc2n1 [Compound 82, (1R,3S,4R)-3-acrylamido-4-((6-(2,6-dichloro-3,5-dimethoxyphenyl)quinazolin-2-yl)amino)-N,N-dimethylcyclopentane-1-carboxamide] | > 1 µM | –
C=CC(=O)N[C@H]1CN(C(=O)NCC)C[C@H]1Nc1ncc2cc(-c3c(Cl)c(OC)cc(OC)c3Cl)ccc2n1 [Compound 83, (3S,4R)-3-acrylamido-4-((6-(2,6-dichloro-3,5-dimethoxyphenyl)quinazolin-2-yl)amino)-N-ethylpyrrolidine-1-carboxamide] | < 0.01 µM | < 0.01 µM
C=CC(=O)N[C@H]1CN(C(=O)OCC)C[C@H]1Nc1ncc2cc(-c3c(Cl)c(OC)cc(OC)c3Cl)ccc2n1 [Compound 84] | < 0.01 µM | 0.01 to 0.1 µM
C=CC(=O)NC1CN(C(=O)COC)CC1Nc1ncc2cc(-c3c(Cl)c(OC)cc(OC)c3Cl)ccc2n1 (stereo not drawn) [Compound 85] | < 0.01 µM | 0.01 to 0.1 µM
C=CC(=O)N[C@H]1CN(C(=O)COC)C[C@H]1Nc1ncc2cc(-c3c(Cl)c(OC)cc(OC)c3Cl)ccc2n1 [Compound 86] | < 0.01 µM | < 0.01 µM
C=CC(=O)NC1CN(C(=O)CN(C)C)CC1Nc1ncc2cc(-c3c(Cl)c(OC)cc(OC)c3Cl)ccc2n1 (stereo not drawn) [Compound 88] | < 0.01 µM | 0.01 to 0.1 µM
C=CC(=O)N[C@H]1CN(S(=O)(=O)CC)C[C@H]1Nc1ncc2cc(-c3c(Cl)c(OC)cc(OC)c3Cl)ccc2n1 [Compound 89] | < 0.01 µM | 0.01 to 0.1 µM
C=CC(=O)N[C@H]1CCN(C(=O)OC(C)(C)C)C[C@H]1Nc1ncc2cc(-c3c(Cl)c(OC)cc(OC)c3Cl)ccc2n1 [Compound 92] | > 1 µM | –
